Data reported in the supplement of paper PMC10307832.

Tests used:
Assay in all cases: relative viability (nuclei count vs DMSO), 5 days (fraction); higher = more cells survive
VE-821 + OSI-027 = compound: CS(=O)(=O)c1ccc(-c2cnc(N)c(C(=O)Nc3ccccc3)n2)cc1 [VE-821] + COc1cccc2cc(-c3nc([C@H]4CC[C@H](C(=O)O)CC4)n4ncnc(N)c34)[nH]c12 [OSI-027] (partner 0.5 µM)
Procedure, shortened: (§1)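 Relative viability equals treated-well nuclei counts divided by vehicle-well nuclei counts. Counts came from 4× images of lung cancer cell lines grown in 1536-well plates for 5 days after pin-tool dosing on the day after seeding. Dosing used one drug alone or a fixed anchor-drug dose plus five library-drug doses (not always all listed) in √10 steps, and values are medians of duplicate plates.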

VE-821 + Trametinib = compound: CS(=O)(=O)c1ccc(-c2cnc(N)c(C(=O)Nc3ccccc3)n2)cc1 [VE-821] + CC(=O)Nc1cccc(-n2c(=O)n(C3CC3)c(=O)c3c(Nc4ccc(I)cc4F)n(C)c(=O)c(C)c32)c1 [Trametinib] (partner 0.02 µM)
Procedure, shortened: as §1

Ruxolitinib + Tozasertib = compound: N#CC[C@H](C1CCCC1)n1cc(-c2ncnc3[nH]ccc23)cn1 [Ruxolitinib] + Cc1cc(Nc2cc(N3CCN(C)CC3)nc(Sc3ccc(NC(=O)C4CC4)cc3)n2)n[nH]1 [Tozasertib] (partner 0.1 µM)
Procedure, shortened: as §1

Ruxolitinib + Linsitinib = compound: N#CC[C@H](C1CCCC1)n1cc(-c2ncnc3[nH]ccc23)cn1 [Ruxolitinib] + C[C@]1(O)C[C@@H](c2nc(-c3ccc4ccc(-c5ccccc5)nc4c3)c3c(N)nccn32)C1 [Linsitinib] (partner 1 µM)
Procedure, shortened: as §1

Cell Line	relative viability (VE-821 + OSI-027; first compound 0.08 µM)	relative viability (VE-821 + OSI-027; first compound 0.253 µM)	relative viability (VE-821 + OSI-027; first compound 0.8 µM)	relative viability (VE-821 + OSI-027; first compound 2.53 µM)	relative viability (VE-821 + OSI-027; first compound 8 µM)	relative viability (VE-821 + Trametinib; first compound 0.08 µM)	relative viability (VE-821 + Trametinib; first compound 0.253 µM)	relative viability (VE-821 + Trametinib; first compound 0.8 µM)	relative viability (VE-821 + Trametinib; first compound 8 µM)	relative viability (Ruxolitinib + Tozasertib; first compound 0.08 µM)	relative viability (Ruxolitinib + Tozasertib; first compound 0.253 µM)	relative viability (Ruxolitinib + Tozasertib; first compound 0.8 µM)	relative viability (Ruxolitinib + Tozasertib; first compound 2.53 µM)	relative viability (Ruxolitinib + Tozasertib; first compound 8 µM)	relative viability (Ruxolitinib + Linsitinib; first compound 0.08 µM)	relative viability (Ruxolitinib + Linsitinib; first compound 0.253 µM)	relative viability (Ruxolitinib + Linsitinib; first compound 0.8 µM)	relative viability (Ruxolitinib + Linsitinib; first compound 2.53 µM)	relative viability (Ruxolitinib + Linsitinib; first compound 8 µM)	relative viability (VE-821 + Trametinib; first compound 2.53 µM)
NCI-H2085	0.788	0.736	0.489	0.747	0.334	0.507	0.463	0.269	0.364	0.882	0.765	0.886	0.77	0.688	0.875	0.888	1.01	0.836	0.685	
NCI-H2087	0.537	0.576	0.515	0.683	0.495	0.218	0.275	0.177	0.234	0.256	0.229	0.24	0.276	0.299	0.861	1.08	0.983	0.692	0.638	0.222
NCI-H2126	0.757	0.651	0.645	0.59	0.49	0.54	0.54	0.549	0.533	0.864	0.848	1.1	0.975	0.838	0.701	0.725	0.731	0.744	0.702	0.495
NCI-H2228	0.636	0.459	0.628	0.695	0.2	0.51	0.645	0.354	0.382	0.32	0.33	0.257	0.314	0.208	0.796	0.686	0.85	0.626	0.559	0.644
NCI-H2347	0.361	0.399	0.404	0.446	0.376	0.298	0.276	0.289	0.324	0.612	0.561	0.554	0.725	0.701	0.893	0.939	1.05	0.886	0.965	0.292
NCI-H2405	0.634	0.632	0.628	0.751	0.686	0.643	0.628	0.53	0.546		0.787	0.833	0.758	0.604		0.779	1.1	0.528	0.632	0.699
NCI-H3122	1.01	0.958	1	1.08	0.758	0.219	0.216	0.235	0.265		0.35	0.493	0.439	0.441	1.09	1.06	1.02	0.815	1.04	0.228
